# Measurements taken from patent US20230364243A1, “CANCER-SELECTIVE TARGET DEGRADATION BY TARGETING GROUP CAGED PROTACS” (Beth Israel Deaconess Medical Center, Inc., priority 2021, published 2023).
# How the values were obtained:
# [1] = molecular target: T1, IKZF3 (Homo sapiens, UniProt Q9UKT9); test: Western blotting of IKZF3 in MM.1S cells; type: cell-based; conditions: FOLR1-positive MM.1S cells, 12 hours
# T1 construct: endogenous in cells; host or cells: MM.1S (also MM.1S-CRBN+/+ and CRBN-/-)
# Method: For folic acid competitive degradation assay, cells were pretreated with folic acid (F8758, Sigma-Aldrich, 2.5 mM) for 2 hours, followed by the treatment of indicated PROTACs for indicated time. […] For proteasome or E3 ligase inhibition assay, cells were treated with MG132 (BML-P11020, ENZO Life Sciences, 10 μM) or MLN4924 (S7109, SelleckChem, 1 μM) another 12 hours.
# (§1) Cells were lysed in EBC buffer (50 mM Tris-HCl pH 7.5, 120 mM NaCl and 0.5% NP-40) supplemented with protease inhibitors (Pierce) and phosphatase inhibitors (phosphatase inhibitor cocktailset I and II, Calbiochem). The protein concentrations of the lysates were measured using the Bio-Rad protein assay reagent on a Beckman Coulter DU-800 spectrophotometer. The lysates (40 μg protein) werethen resolved by 10% SDS-olyacrylamide gel electrophoresis (PAGE) at 130 V for 80 min and immunoblotted with indicated antibodies at 4° C. overnight, washed four times with Tris-buffered saline with 0.1% Tween-20 (TBST) buffer, incubated with secondary antibody for 1 hour at room temperature, and then washed 4 times with TBST.
# [2] = tested on: MM.1S cells; test: Cell viability / proliferation of MM.1S cells (CCK-8); type: cell-based; conditions: Homo sapiens, MM1.S, 72 hours
# Method: (§2) For folic acid competitive degradation assay, cells were pretreated with folic acid (F8758, Sigma-Aldrich, 2.5 mM) for 2 hours, followed by the treatment of indicated PROTACs for indicated time. For endocytosis inhibition, cells were pretreated with Pitostop 2 (SML1169, Sigma-Aldrich, 1-30 μM) or MCD (21633, Cayman, 0.03-1 mM) for 12 hours, followed by co-treatment with indicated PROTACs for another 12 hours. For proteasome or E3 ligase inhibition assay, cells were treated with MG132 (BML-P11020, ENZO Life Sciences, 10 μM) or MLN4924 (S7109, SelleckChem, 1 μM) another 12 hours. For GSH-stimulating assay, cells were treated with S-Acetyl-GSH (29624, Cayman, 1 mM) with indicated PROTACs for 12 or 72 hours.
# (§3) Cell in 96-well plates were treated with drugs as indicated, and then incubated with 10 μl/well of CCK-8 (cell counting Kit-8) solution at for 1-2 hours, followed by the measurement of optical density at 450 nm.
# [3] = molecular target: Flag-tagged cereblon (CRBN) (Homo sapiens, UniProt Q96SW2); test: Streptavidin pulldown competition with biotinylated pomalidomide for Flag-CRBN; type: binding; conditions: caged, inert form; HEK293T cell lysis, 1 hour
# Method: Streptavadin pull down assays were performed on cell lysis derived from HEK293T (kidney) cells. Cell lysis was incubated with biotin or biotin-POMA, with or without pomalidomide, FA-S2_POMA or FA-C2-POMA for 1 hour. Additionally, some cell lysates had been pretreated with GSH.
# The streptavidin pulldown assay for biotin-pomalidomide was performed as previous reported. Briefly, Flag-CRBN was expressed in HEK293T cells lysed in PROTAC buffer B (50 mM Tris-HCl pH7.5, 150 mM NaCl and 0.5% NP-40) supplemented with protease inhibitors (Pierce) and phosphatase inhibitors (phosphatase inhibitor cocktail set I and II, Calbiochem). A total of 1 mg of cell lysate was incubated with 10 μl of 10 mM biotin-pomalidomide and 8 μl of streptavidin beads for 1 hour at 4° C. in the absence or presence of pomalidomide or its derivates. Alternatively, Folate-S2-pomalidomide or Folate-C2-pomalidomide were incubated with 5 mM GSH and then subjected to the competition bindingassay. Then, the beads were washed four times with NETN buffer (20 mM Tris-HCl pH 7.5, pH 8.0, 100 mM NaCl, 1 mM EDTA and 0.5% NP-40), before being resolved by SDS-PAGE and immunoblotted with Flag-tag antibody.
# [4] = tested on: SU-DHL-1 cells; test: Cell viability of SU-DHL-1 cells (CCK-8); type: cell-based; conditions: 72 hours
# Method: as §2, §3
# [5] = Release of active compound after incubation with DTT in PBS at 37° C., HPLC analysis; type: physicochemical; conditions: 37° C. in PBS
# Method: FA-S2-POMA and the negative control FA-C2-POMA were incubated with dithiothreitol (DTT) under physiological conditions (37° C. in phosphate buffered saline (PBS)) and then subjected to HPLC analysis.
# The effects of these folate caged PROTACS on ALK fusion protein degradation was assessed in cancer cells. FA-S2-MS4048 and FA-C2-MS4048 were incubated with DTT at 37° C. in PBS. […] Furthermore, compared to FA-S2-POMA (FIG. 11B), the release rate of FA-S2-MS4048 is slower.
# [6] = molecular target: T2, NPM-ALK fusion protein (Homo sapiens, UniProt Q9UM73); test: Western blot analysis of NPM-ALK fusion protein in SU-DHL-1 cells; type: cell-based
# T2 construct: endogenous in cells; host or cells: SU-DHL-1; the other entry of the earlier key: NPM1 (P06748, Nucleophosmin)
# Method: as §2
# (§4) Cells were lysed in EBC buffer (50 mM Tris pH 7.5, 120 mM NaCl, 0.5% NP-40) supplemented with protease inhibitors (Pierce) and phosphatase inhibitors (phosphatase inhibitor cocktail set I and II, Calbiochem). The protein concentrations of the lysates were measured using the Bio-Rad protein assay reagent on a Beckman Coulter DU-800 spectrophotometer. The lysates were then resolved by SDS-PAGE and immunoblotted with indicated antibodies.
# as §1
# [7] = molecular target: T3, EML4-ALK fusion protein (Homo sapiens, UniProt Q9UM73); test: Western blot analysis of EML4-ALK fusion protein in NCI-H2228 and NCI-H3122 NSCLC cells; type: cell-based
# T3 construct: endogenous in cells; host or cells: NCI-H2228, NCI-H3122; the other entry of the earlier key: EML4 (Q9HC35, Echinoderm microtubule-associated protein-like 4)
# Method: as §2, §4, §1
# [8] = molecular target: T4, BRD4 (Homo sapiens, UniProt O60885); test: Western blot analysis of BRDs protein levels in HeLa cells; type: cell-based; conditions: HeLa cells pretreated with MβCD
# T4 construct: endogenous in cells; host or cells: HeLa
# [9] = tested on: MEK1 and MEK2; test: Western blot analysis of MEK1 and MEK2 levels in HT29 and SK-MEL-28 cells; type: cell-based
# Method: as §2, §4, §1
# [10] = tested on: HT-29 cells; test: Cell viability of HT-29 cells (CCK-8); type: cell-based; conditions: 72 hours
# Method: as §3
# [11] = tested on: SK-MEL-28 cells; test: Cell viability of SK-MEL-28 cells (CCK-8); type: cell-based; conditions: 72 hours
# Method: as §3
smiles,measurement,setting,value
"Nc1nc2ncc(CNc3ccc(C(=O)N[C@@H](CCC(=O)NCc4cn(CCCCCCOC(=O)N5C(=O)CCC(N6C(=O)c7cccc(N)c7C6=O)C5=O)nn4)C(=O)O)cc3)nc2c(=O)[nH]1 (stereo partly drawn) [FA-C2-POMA, N^5-((1-(6-((3-(4-amino-1,3-dioxoisoindolin-2-yl)-2,6-dioxopiperidine-1-carbonyl)oxy)hexyl)-1H-1,2,3-triazol-4-yl)methyl)-N^2-(4-(((2-amino-4-oxo-3,4-dihydropteridin-6-yl)methyl)amino)benzoyl)-L-glutamine]",degradation of IKZF3,[1],ineffective in degrading IKZF3
same,IC50,[2],62.3 µM
same,competition with biotinylated-pomalidomide to bind CRBN E3 ubiquitin ligase,[3],not compete
"Cc1cc(Nc2ncc(Cl)c(Nc3ccccc3S(=O)(=O)C(C)C)n2)c(OC(C)C)cc1C1CCN(CC(=O)NCCNc2cccc3c2C(=O)N(C2CCC(=O)N(C(=O)OCCSSCCn4cc(CNC(=O)CC[C@H](NC(=O)c5ccc(NCc6cnc7nc(N)[nH]c(=O)c7n6)cc5)C(=O)O)nn4)C2=O)C3=O)CC1 (stereo partly drawn) [FA-S2-MS4048, N^2-(4-(((2-amino-4-oxo-3,4-dihydropteridin-6-yl)methyl)amino)benzoyl)-N^5-((1-(2-((2-((3-(4-((2-(2-(4-(4-((5-chloro-4-((2-(isopropylsulfonyl)phenyl)amino)pyrimidin-2-yl)amino)-5-isopropoxy-2-methylphenyl)piperidin-1-yl)acetamido)ethyl)amino)-1,3-dioxoisoindolin-2-yl)-2,6-dioxopiperidine-1-carbonyl)oxy)ethyl)disulfanyl)ethyl)-1H-1,2,3-triazol-4-yl)methyl)-L-glutamine]",potency in inhibiting proliferation after pretreatment with folic acid,[4]; 2.5 mM folic acid,significantly reduced potency
same,IC50,"[4]; Homo sapiens, read-out: IC50 cell viability / proliferation",0.465 µM
same,potency in inhibiting proliferation after pretreatment with S-Ac-GSH,[4]; S-Ac-GSH 1 mM,significantly increased potency
same,release of MS4048 after DTT treatment,"[5]; DTT (10 equiv), HPLC",efficient release of MS4048
same,release rate compared to FA-S2-POMA,[5]; DTT,slower
same,potency in degrading the ALK proteins compared with FA-C2-MS4048,[6]; ALK fusion proteins,more potent than FA-C2-MS4048
same,potency in degrading the proteins of interest compared with MS4048,[6]; ALK fusion proteins,"less potent than its uncaged analog, MS4048"
same,degradation of NPM-ALK fusion protein,[6]; SU-DHL-1 cells,effectively degraded
same,time at which significant degradation was observed,"[6]; SU-DHL-1 cells, 3 μM",≤ 1 h
same,effect on degrading NPM-ALK after depletion of endogenous CRBN E3 ligase,"[6]; SU-DHL-1 cells, 3 μM, 12 hours",significantly reduced the effect
same,effect on degrading NPM-ALK after knockdown of FOLR1 via shRNAs,"[6]; SU-DHL-1 cells, 3 μM, 12 hours",completely abolished the effect
same,degradation of NPM-ALK with MG132 or MLN4924,"[6]; SU-DHL-1 cells, 10 μM MG132 or 1 μM MLN4924",blocked the degradation of NPM-ALK
same,potency in degrading NPM-ALK after pretreatment with S-Ac-GSH,"[6]; SU-DHL-1 cells, S-Ac-GSH 1 mM",significant increase in potency
same,effect in degrading NPM-ALK fusion protein after pretreatment with folic acid,"[6]; SU-DHL-1 cells, free folic acid pretreatment",blocked the effect
same,degradation of EML4-ALK fusion proteins,[7],effectively degraded
same,degradation of EML4-ALK with MG132 or MLN4924,[7]; MG132 or MLN4924,blocked the degradation
Cc1ncsc1-c1ccc([C@H](C)NC(=O)[C@@H]2C[C@@H](OC(=O)CCCCn3cc(CNC(=O)CC[C@H](NC(=O)c4ccc(NCc5cnc6nc(N)[nH]c(=O)c6n5)cc4)C(=O)O)nn3)CN2C(=O)[C@@H](NC(=O)COCCCOCCNC(=O)C[C@@H]2N=C(c3ccc(Cl)cc3)c3c(sc(C)c3C)-n3c(C)nnc32)C(C)(C)C)cc1 [Folate-ARV-771],effect in degrading BRD4 after pretreatment with endocytosis inhibitor MβCD,[8],efficiently blocked the effect
"Cc1ncsc1-c1ccc([C@H](C)NC(=O)[C@@H]2C[C@@H](OC(=O)CCCCn3cc(CNC(=O)CC[C@H](NC(=O)c4ccc(NCc5cnc6nc(N)[nH]c(=O)c6n5)cc4)C(=O)O)nn3)CN2C(=O)[C@@H](NC(=O)CCCCCCCCCCNCCCONC(=O)c2ccc(F)c(F)c2Nc2ccc(I)cc2F)C(C)(C)C)cc1 [Folate-MS432, N^2-(4-(((2-amino-4-oxo-3,4-dihydropteridin-6-yl)methyl)amino)benzoyl)-N^5-((1-(5-(((3R,5S)-1-((S)-2-(11-((3-((3,4-difluoro-2-((2-fluoro-4-iodophenyl)amino)benzamido)oxy)propyl)amino)undecanamido)-3,3-dimethylbutanoyl)-5-(((S)-1-(4-(4-methylthiazol-5-yl)phenyl)ethyl)carbamoyl)pyrrolidin-3-yl)oxy)-5-oxopentyl)-1H-1,2,3-triazol-4-yl)methyl)-L-glutamine]",degradation of MEK1 and MEK2,"[9]; HT29 and SK-MEL-28 cells, dose- and time-dependent",degraded MEK1 and MEK2
same,effect in degrading MEK1 and MEK2 after pretreatment of folic acid,"[9]; HT-29 and SK-MEL-28 cells, folic acid pretreatment",blocked the effect
same,degradation of MEK1/2 after pretreatment with VHL ligand Ac-VHL,"[9]; HT-29 cells, Ac-VHL pretreatment",blocked the degradation of MEK1/2
same,IC50,[10]; Homo sapiens,0.436 µM
same,IC50,[11]; Homo sapiens,0.39 µM
"Cc1ncsc1-c1ccc([C@H](C)NC(=O)[C@@H]2C[C@@H](O)CN2C(=O)[C@@H](NC(=O)CCCCCCCCCCNCCCONC(=O)c2ccc(F)c(F)c2Nc2ccc(I)cc2F)C(C)(C)C)cc1 [MS432, reference compound]",IC50,[10],0.176 µM
same,IC50,[11],0.0324 µM
